Results as given in patent publication US12240862B2, “Inhibitors of peptidylarginine deiminases” (Gilead Sciences, Inc., priority 2020, dated 2025).

Biological target: T1, human PAD4 (Homo sapiens, UniProt Q9UM07)
T1 construct: human PAD4 (NM_012387), A2P663, was PCR amplified; His-SUMO (N, cleaved yes); made in house; host or cells: E. coli BL21(DE3)
Assay: In vitro PAD4 BAEE biochemical assay
Settings: human PAD4, BAEE substrate; 5 nM PAD4, 2 mM calcium chloride, 3 mM BAEE; geometric mean of multiple experiments
Procedure, shortened: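 Tag-free recombinant hPAD4 (5 nM), 2 mM CaCl2, 3 mM BAEE, 50 mM MOPS pH 7.6, 2 mM DTT; 30 min compound preincubation, 2 h reaction, all 25 °C. EDTA quench; ammonia read via o-phthalaldehyde amine coupling, 1 h.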

T1 sequence (Q9UM07 2-663): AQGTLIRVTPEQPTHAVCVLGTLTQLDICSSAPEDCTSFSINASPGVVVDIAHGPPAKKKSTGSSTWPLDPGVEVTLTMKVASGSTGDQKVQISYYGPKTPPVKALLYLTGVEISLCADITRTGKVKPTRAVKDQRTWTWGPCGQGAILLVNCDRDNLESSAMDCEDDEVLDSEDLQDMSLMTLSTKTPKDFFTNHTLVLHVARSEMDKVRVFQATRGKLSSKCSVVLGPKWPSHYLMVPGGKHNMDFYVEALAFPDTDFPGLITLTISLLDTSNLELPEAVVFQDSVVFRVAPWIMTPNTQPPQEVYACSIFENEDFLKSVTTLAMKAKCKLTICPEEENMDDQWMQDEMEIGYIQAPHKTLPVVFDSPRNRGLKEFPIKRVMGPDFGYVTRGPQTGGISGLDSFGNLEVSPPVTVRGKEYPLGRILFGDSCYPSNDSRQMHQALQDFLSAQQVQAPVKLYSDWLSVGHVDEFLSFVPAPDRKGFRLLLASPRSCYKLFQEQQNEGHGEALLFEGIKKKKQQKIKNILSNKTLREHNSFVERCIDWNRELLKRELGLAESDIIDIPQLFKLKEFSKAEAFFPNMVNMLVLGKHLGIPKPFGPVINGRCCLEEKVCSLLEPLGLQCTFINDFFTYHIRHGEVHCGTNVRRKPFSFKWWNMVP

Structure (SMILES) | IC50 [nM]
COc1cc(C(=O)N2[C@H]3CC[C@@H]2[C@H](N)C3)cc2nc(-c3cc4ccc([C@@H](C)NC(=O)c5ccc(C)nc5)nc4n3CC3CC3)c(C)n12 [Example 49, ~{N}-[(1~{R})-1-[2-[7-[(1~{R},2~{R},4~{S})-2-amino-7-azabicyclo[2.2.1]heptane-7-carbonyl]-5-methoxy-3-methylimidazo [1,2-a]pyridin-2-yl]-1-(cyclopropylmethyl)pyrrolo[2,3-b]pyridin-6-yl]ethyl]-6-methylpyridine-3-carboxamide] | 22.2
COc1cc(C(=O)N2[C@H]3CC[C@@H]2[C@H](N)C3)cc2nc(-c3cc4ccc([C@@H](C)NC(=O)c5ccnc(C(F)F)c5)nc4n3CC3CC3)c(C)n12 [Example 50, ~{N}-[(1~{R})-1-[2-[7-[(1~{R},2~{R},4~{S})-2-amino-7-azabicyclo[2.2.1]heptane-7-carbonyl]-5-methoxy-3-methylimidazo [1,2-a]pyridin-2-yl]-1-(cyclopropylmethyl)pyrrolo[2,3-b]pyridin-6-yl]ethyl]-2-(difluoromethyl)pyridine-4-carboxamide] | 30.6
COc1cc(C(=O)N2[C@H]3CC[C@@H]2[C@H](N)C3)cc2nc(-c3cc4ccc([C@@H](C)NC(=O)c5ccnc(Cl)c5)nc4n3CC3CC3)c(C)n12 [Example 51] | 30.9
COc1cc(C(=O)N2[C@H]3CC[C@@H]2[C@H](N)C3)cc2nc(-c3cc4ccc([C@@H](C)NC(=O)c5ccncc5F)nc4n3CC3CC3)c(C)n12 [Example 52] | 31.4
COc1cc(C(=O)N2[C@H]3CC[C@@H]2[C@H](N)C3)cc2nc(-c3cc4ccc([C@@H](C)NC(=O)C5C(F)(F)C56CC6)nc4n3CC3CC3)c(C)n12 (some centres unmarked) [Example 53, ~{N}-[(1~{R})-1-[2-[7-[(1~{R},2~{R}, 4~{S})-2-amino-7-azabicyclo[2.2.1]heptane-7-carbonyl]-5-methoxy-3-methylimidazo[1,2-a]pyridin-2-yl]-1-(cyclopropylmethyl)pyrrolo[2,3-b]pyridin-6-yl]ethyl]-2,2-difluorospiro[2.2] pentane-1-carboxamide] | 37.2
COc1cc(C(=O)N2[C@H]3CC[C@@H]2[C@H](N)C3)cc2nc(-c3cc4ccc([C@@H](C)NC(=O)C5CC6(CC6)C5)nc4n3CC3CC3)c(C)n12 [Example 55, ~{N}-[(1~{R})-1-[2-[7-[(1~{R},2~{R},4~{S})-2-amino-7-azabicyclo [2.2.1]heptane-7-carbonyl]-5-methoxy-3-methylimidazo [1,2-a]pyridin-2-yl]-1-(cyclopropylmethyl)pyrrolo[2,3-b]pyridin-6-yl]ethyl] spiro[2.3]hexane-5-carboxamide] | 52.6
COc1cc(C(=O)N2C[C@H]3CCCN[C@H]3C2)cc2nc(-c3cc4ccc([C@@H](C)NC(=O)c5ccccc5)nc4n3CC3CC3)c(C)n12 [Example 58, ~{N}-[(1~{R})-1-[2-[7-[(4~{a}~{R}, 7~{a}~{R})-1,2,3,4,4~{a},5,7,7~{a}-octahydropyrrolo[3,4-b]pyridine-6-carbonyl]-5-methoxy-3-methylimidazo[1,2-a]pyridin-2-yl]-1-(cyclopropylmethyl)pyrrolo[2,3-b]pyridin-6-yl]ethyl]benzamide] | 771
COc1cc(C(=O)N2CC[C@H]3CCN[C@H]3C2)cc2nc(-c3cc4ccc([C@@H](C)NC(=O)c5ccccc5)nc4n3CC3CC3)c(C)n12 [Example 59, ~{N}-[(1~{R})-1-[2-[7-[(3~{a}~{R}, 7~{a}~{R})-1,2,3,3~{a},4,5,7,7~{a}-octahydropyrrolo[2,3-c]pyridine-6-carbonyl]-5-methoxy-3-methylimidazo[1,2-a]pyridin-2-yl]-1-(cyclopropylmethyl)pyrrolo[2,3-b]pyridin-6-yl]ethyl]benzamide] | 194
COc1cc(C(=O)N2[C@H]3CC[C@@H]2[C@H](N)C3)cc2nc(-c3cc4ccc([C@@H](C)NC(=O)c5cc6n(c5)CCOC6)nc4n3CC3CC3)c(C)n12 [Example 62, ~{N}-[(1~{R})-1-[2-[7-[(1~{R},2~{R}, 4~{S})-2-amino-7-azabicyclo[2.2.1]heptane-7-carbonyl]-5-methoxy-3-methylimidazo [1,2-a]pyridin-2-yl]-1-(cyclopropylmethyl)pyrrolo[2,3-b]pyridin-6-yl]ethyl]-3,4-dihydro-1~{H}-pyrrolo [2,1-c][1,4]oxazine-7-carboxamide] | 48.3
COc1cc(C(=O)N2[C@H]3CC[C@@H]2[C@H](N)C3)cc2nc(-c3cc4ccc([C@@H](C)NC(=O)C56CCC(F)(CC5)CC6)nc4n3CC3CC3)c(C)n12 [Example 63, ~{N}-[(1~{R})-1-[2-[7-[(1~{R},2~{R}, 4~{S})-2-amino-7-azabicyclo[2.2.1]heptane-7-carbonyl]-5-methoxy-3-methylimidazo [1,2-a]pyridin-2-yl]-1-(cyclopropylmethyl)pyrrolo[2,3-b]pyridin-6-yl]ethyl]-4-fluorobicyclo[2.2.2] octane-1-carboxamide] | 84.9
COc1cc(C(=O)N2[C@H]3CC[C@@H]2[C@H](N)C3)cc2nc(-c3cc4ccc([C@@H](C)NC(=O)C5CCC(F)(F)CC5)nc4n3CC3CC3)c(C)n12 [Example 66, ~{N}-[(1~{R})-1-[2-[7-[(1~{R},2~{R},4~{S})-2-amino-7-azabicyclo [2.2.1]heptane-7-carbonyl]-5-methoxy-3-methylimidazo [1,2-a]pyridin-2-yl]-1-(cyclopropylmethyl)pyrrolo[2,3-b]pyridin-6-yl]ethyl]-4,4-difluorocyclohexane-1-carboxamide] | 68.5

Further lines, results first:

IC50 [nM] | Structure (SMILES)
28.7 | COc1cc(C(=O)N2[C@H]3CC[C@@H]2[C@H](N)C3)cc2nc(-c3cc4ccc([C@@H](C)NC(=O)[C@H]5C[C@@](C)(O)C5)nc4n3CC3CC3)c(C)n12 [Example 54, ~{N}-[(1~{R})-1-[2-[7-[(1~{R},2~{R}, 4~{S})-2-amino-7-azabicyclo[2.2.1]heptane-7-carbonyl]-5-methoxy-3-methylimidazo[1,2-a]pyridin-2-yl]-1-(cyclopropylmethyl)pyrrolo[2,3-b]pyridin-6-yl]ethyl]-3-hydroxy-3-methylcyclobutane-1-carboxamide]
254 | COc1cc(C(=O)N2[C@H]3CC[C@@H]2[C@H](N)C3)cc2nc(-c3cc4ccc([C@@H](C)NC(=O)c5ccc(F)cc5F)nc4n3CC3CC3)c(C)n12 [Example 56, ~{N}-[(1~{R})-1-[2-[7-[(1~{R},2~{R}, 4~{S})-2-amino-7-azabicyclo[2.2.1]heptane-7-carbonyl]-5-methoxy-3-methylimidazo[1,2-a]pyridin-2-yl]-1-(cyclopropylmethyl)pyrrolo[2,3-b]pyridin-6-yl]ethyl]-2,4-difluorobenzamide]
226 | COc1cc(C(=O)N2[C@H]3CC[C@@H]2[C@H](N)[C@H](O)C3)cc2nc(-c3cc4ccc([C@@H](C)NC(=O)C(C)(C)C)nc4n3CC3CC3)c(C)n12 [Example 60, ~{N}-[(1~{R})-1-[2-[7-[(1~{R},2~{S},3~{R}, 5~{S})-2-amino-3-hydroxy-8-azabicyclo[3.2.1]octane-8-carbonyl]-5-methoxy-3-methylimidazo [1,2-a]pyridin-2-yl]-1-(cyclopropylmethyl)pyrrolo[2,3-b]pyridin-6-yl]ethyl]-2,2-dimethylpropanamide]
37.8 | COc1cc(C(=O)N2[C@H]3CC[C@@H]2[C@H](N)C3)cc2nc(-c3cc4ccc([C@@H](C)NC(=O)C5CCC5(F)F)nc4n3CC3CC3)c(C)n12 (some centres unmarked) [Example 61, ~{N}-[(1~{R})-1-[2-[7-[(1~{R},2~{R},4~{S})-2-amino-7-azabicyclo [2.2.1]heptane-7-carbonyl]-5-methoxy-3-methylimidazo [1,2-a]pyridin-2-yl]-1-(cyclopropylmethyl)pyrrolo[2,3-b]pyridin-6-yl]ethyl]-2,2-difluorocyclobutane-1-carboxamide]
38.5 | C=CCC(=O)N[C@H](C)c1ccc2cc(-c3nc4cc(C(=O)N5[C@H]6CC[C@@H]5[C@H](N)C6)cc(OC)n4c3C)n(CC3CC3)c2n1 [Example 64, ~{N}-[(1~{R})-1-[2-[7-[(1~{R},2~{R},4~{S})-2-amino-7-azabicyclo[2.2.1]heptane-7-carbonyl]-5-methoxy-3-methylimidazo [1,2-a]pyridin-2-yl]-1-(cyclopropylmethyl)pyrrolo[2,3-b]pyridin-6-yl]ethyl]but-3-enamide]
33.6 | COc1cc(C(=O)N2[C@H]3CC[C@@H]2[C@H](N)C3)cc2nc(-c3cc4ccc([C@@H](C)NC(=O)C56CC(CO)(C5)C6)nc4n3CC3CC3)c(C)n12 [Example 65]
124 | COc1cc(C(=O)N2[C@H]3CC[C@@H]2[C@H](N)C3)cc2nc(-c3cc4ccc([C@@H](C)NC(=O)C5(C(F)(F)F)CCOCC5)nc4n3CC3CC3)c(C)n12 [Example 67, ~{N}-[(1~{R})-1-[2-[7-[(1~{R},2~{R},4~{S})-2-amino-7-azabicyclo [2.2.1]heptane-7-carbonyl]-5-methoxy-3-methylimidazo [1,2-a]pyridin-2-yl]-1-(cyclopropylmethyl)pyrrolo[2,3-b]pyridin-6-yl]ethyl]-4-(trifluoromethyl)oxane-4-carboxamide]
45.3 | COCC1(C(=O)N[C@H](C)c2ccc3cc(-c4nc5cc(C(=O)N6[C@H]7CC[C@@H]6[C@H](N)C7)cc(OC)n5c4C)n(CC4CC4)c3n2)CC1 [Example 68, ~{N}-[(1~{R})-1-[2-[7-[(1~{R},2~{R},4~{S})-2-amino-7-azabicyclo [2.2.1]heptane-7-carbonyl]-5-methoxy-3-methylimidazo [1,2-a]pyridin-2-yl]-1-(cyclopropylmethyl)pyrrolo[2,3-b]pyridin-6-yl]ethyl]-1-(methoxymethyl) cyclopropane-1-carboxamide]
41 | COc1cc(C(=O)N2[C@H]3CC[C@@H]2[C@H](N)C3)cc2nc(-c3cc4ccc([C@@H](C)NC(=O)C5CC56CC6)nc4n3CC3CC3)c(C)n12 (some centres unmarked) [Example 69, ~{N}-[(1~{R})-1-[2-[7-[(1~{R},2~{R},4~{S})-2-amino-7-azabicyclo [2.2.1]heptane-7-carbonyl]-5-methoxy-3-methylimidazo [1,2-a]pyridin-2-yl]-1-(cyclopropylmethyl)pyrrolo[2,3-b]pyridin-6-yl]ethyl]spiro[2.2] pentane-2-carboxamide]
